Assay results from patent US20090274676A1, “COMBINATION OF DEHYDROEPIANDROSTERONE OR DEHYDROEPIANDROSTERONE-SULFATE WITH A PDE-4 INHIBITOR FOR TREATMENT OF ASTHMA OR CHRONIC OBSTRUCTIVE PULMONARY DISEASE” (priority 2003, published 2009).
Like-named read-outs stand apart in the source and are kept apart here.

Assays:
adenosine = test: In vivo effect on adenosine levels in rat tissues (HPLC of tissue adenosine)
Experimental: Folinic acid (50 mg/kg) was administered intraperitoneally once daily for fourteen days. […] Hearts were removed from animals and flash frozen in liquid nitrogen with 10 s of death. Liver and lungs were removed en bloc and flash frozen with 30 s of death. Brain tissue was subsequently dissected.

HT-29 SF cells [1] = test: Reversal of DHEA effect on cell cycle (flow cytometry); format: cell-based, human; details: 25 μM DHEA, 48 hours
HT-29 SF cells [2] = test: Reversal of DHEA-mediated growth inhibition; format: cell-based, human; details: 25 μM DHEA, supplement in medium, 48 hours
Solubility of DHEA-S = format: physicochemical; details: for Solubility: range of triplicates
Text: Inhalation of pure water can produce a cough stimulus. […] The temperature effect is weaker at high NaCl concentrations.

HT-29 SF cells [3] = test: DHEA effect on cell growth (Coulter counter); format: cell-based, human; details: 12.5-200 μM, 24-72 hours
HT-29 SF cells [4] = test: DHEA effect on cell cycle (flow cytometry); format: cell-based, human
Experimental: Cells were plated at 10^5/60-mm dish in duplicate. […] Cultures were trypsinized following 0, 24, 48, or 74 hours and fixed and stained using a modification of a procedure of Bauer et al., Cancer Res. 46, 3173-3178 (1986). Briefly, cells were collected by centrifugation and resuspended in cold phosphate-buffered saline. Cells were fixed in 70% ethanol, washed, and resuspended in phosphate-buffered saline.
After 24, 48, and 72 hours, cells were harvested, fixed in ethanol, and stained with propidium iodide, and the DNA content/cell was determined by flow cytometric analysis. The percentage of cells in G1, S, and G2M phases was calculated using the Cellfit cell cycle analysis program. S phase is marked by a quadrangle for clarity. Representative histograms from duplicate determinations are shown. The experiment was repeated three times.

[5] = Physicochemical testing of DHEA-S dihydrate before and after micronization; details: for Water (% w/w): Karl Fischer
Experimental: Surface area is determined using five point BET analyses are performed with nitrogen as the adsorbing gas (P/Po=0.05 to 0.30) using a Micromeritics TriStar surface area analyzer. Particle size distributions are measured by laser diffraction using a Micromeritics Saturn Digisizer where the particles are suspended in mineral oil with sodium dioctyl sodium sulfosuccinate as a dispersing agent. Drug substance water content is measured by Karl Fischer titration (Schott Titroline KF). Pure water is used as the standard and all relative standard deviations for triplicates are less than 1%. Powder is added directly to the titration media.

[6] = Aerosolization of neat DHEA-S dihydrate, Acu-Breathe single-dose inhaler, fine particle fraction; format: physicochemical; details: neat powder, Acu-Breathe, 30 to 75 L/min, all flow rates
Text: The single-dose Acu-Breathe device is used for evaluating DHEA-S.dihydrate. […] These blisters are actuated into the Andersen 8-stage cascade impactor at flow rates ranging from 30 to 75 L/min with a glass twin-impinger throat. Stages 1-5 of the Andersen impactor are rinsed together to obtain an estimate of the fine particle fraction. Pooling the drug collected from multiple stages into one assay make the method much more sensitive. […] Using a carrier with a larger particle size typically improves the aerosol properties of micronized drug substances.

[7] = Solid-state stability with and without lactose at 50° C. (HPLC, DHEA formation); format: physicochemical
Text: These conditions were used to stress the formulation in order to predict its long-term stability results. […] The primary degradant is DHEA. […] The materials on accelerated storage become more cohesive with time as evidenced by clumping during sample weighing for chemical analysis. […] This is a considerable disadvantage since lactose is the most commonly used inhalation excipient for dry powder formulations. Continuing with the virtually anhydrous form would mean limiting formulations to neat powder or undertaking more comprehensive safety studies to use a novel excipient.

[8] = HPLC analysis of drug degradation during jet milling; format: physicochemical; details: HPLC peak area vs unmilled standard
Experimental: Two vials (A; single-pass; 150 mg) and (B double-pass; 600 mg) of the micronized drug were available for determining drug degradation during jet milling micronization. […] The chromatographic peak area for the HPLC assay of the unmilled drug standard solution (10 mg/ml) gave a value of 23,427. […] The chromatographic peak areas for vials A and B were 11,979 and 11,677, respectively.

[9] = Short-term solution stability of DHEA-S nebulizer formulation; format: physicochemical; details: for Appearance of solution on storage: 10 mg/mL in 0.12% NaCl
Experimental: Aliquots of this solution are filled into clear glass vials and stored at RT (24-26° C.) and at 40° C. The samples are checked daily for DHEA-S content, DHEA content, and appearance. For each time point, duplicate samples are withdrawn and diluted from each vial. […] The study is stopped on day three. […] The solution should easily be stable for the day of reconstitution in a clinical trial. The following section describes the aerosol properties of this formulation.

asthma = details: 657 patients with asthma, cited from earlier work
[10] = Folinic Acid 50 mg/kg intraperitoneally once daily 14 days, mean±SEM

## Nc1nc(=O)c2c([nH]1)NCC(CNc1ccc(C(=O)N[C@@H](CCC(=O)O)C(=O)O)cc1)N2C=O (mixture of isomers) [Folinic Acid, Folinic acid]
adenosine; [10]
  Intracellular adenosine, Brain: 0.72 ± 0.09 nmols/mg protein
  Intracellular adenosine, Heart: 12.4 ± 2.1 nmols/mg protein
  Intracellular adenosine, Liver: 16.4 ± 2.4 nmols/mg protein
adenosine; all organs studied
  Effect on adenosine levels when administered alone: increase in adenosine levels
adenosine; coadministered with DHEA or methyltestosterone
  Effect of coadministration on steroid-mediated adenosine depletion: completely abrogated

## CC(C)CCC[C@@H](C)[C@H]1CC[C@H]2[C@@H]3CC=C4C[C@@H](O)CC[C@]4(C)[C@H]3CC[C@]12C [CH, cholesterol]
HT-29 SF cells [1]
  Prevention of DHEA-induced S phase depletion: very little effect
HT-29 SF cells [2]
  Reversal of DHEA-induced growth inhibition: no such effect

## C[C@]12CC[C@H](O)CC1=CC[C@@H]1[C@@H]2CC[C@]2(C)C(=O)CC[C@@H]12 [DHEA, 3β-hydroxyandrost-5-en-17-one]
Solubility of DHEA-S; water
  Solubility in water: insoluble in water
HT-29 SF cells [3]
  Effect on growth of HT-29 cells: time- and dose-dependent inhibition of growth
HT-29 SF cells [4]; 200 μM, after 24 hours
  Percentage of cells in G1 / S phase: more rapid increase in the percentage of cells in G1 and a decreased proportion of cells in S phase
HT-29 SF cells [4]; 25 or 50 μM, after 48 hours
  G2M phase cells: transient increase
HT-29 SF cells [4]; 25 or 50 μM, after 72 hours
  Percentage of cells in G1 phase: increased
HT-29 SF cells [4]; 25 or 50 μM, after the initial 24 hours
  Cell cycle distribution: unchanged
HT-29 SF cells [4]; time- and dose-dependent
  Overall effect on cell cycle: G1 block

## CC12CCC3C(CC=C4CC(OS(=O)(=O)[O-])CCC43C)C1CCC2=O.[Na+] (stereo not drawn) [DHEA-S Dihydrate]
[5]; Bulk
  Particle size (D50%): 31 microns
  Water (% w/w): 8.5 % w/w
[5]; Micronized
  Particle size (D50%): 3.7 microns
  Water (% w/w): 8.4 % w/w
[5]; Micronized, five point BET
  Surface area (m^2/g): 4.9 m^2/g
[6]
  Fine particle fraction compared with virtually anhydrous material: higher fine particle fraction
[7]; 1 week at 50° C.
  Colour after storage: no change in color
[7]; 50° C., 1 week
  DHEA % formed: 0.216%
[7]; 50° C., 3 weeks
  DHEA % formed: 0.317%
[7]; 50° C., 4 weeks
  DHEA % formed: 0.374%
[7]; Control, initial (Time=0)
  DHEA % formed: 0.213%
[7]; Control, sealed, 25° C., 4 weeks
  DHEA % formed: 0.218%
[7]; before storage
  Water content, starting value: 8.8%
[7]; one week at 50° C.
  Water content after accelerated storage: 8.66%

## C[C@]12CC[C@H](OS(=O)(=O)[O-])CC1=CC[C@@H]1[C@@H]2CC[C@]2(C)C(=O)CC[C@@H]12.[Na+] [DHEA-S, sodium dehydroepiandrostenone sulfate]
[8]
  Degradation of the drug during jet milling micronization: no detectable degradation
Solubility of DHEA-S; 0.9% NaCl, refrigerated (7-8° C.)
  Solubility: 1100 to 1300 µg/mL
Solubility of DHEA-S; 15° C., interpolated
  Ksp: ~1316 mM^2
Solubility of DHEA-S; hexane
  Solubility in hexane: insoluble
Solubility of DHEA-S; refrigerated (7-8° C.)
  Equilibrium constant Ksp: 665 mM^2
Solubility of DHEA-S; room temperature (24-25° C.)
  Equilibrium constant Ksp: 2236 mM^2
Solubility of DHEA-S; ~25° C., 0% NaCl
  Solubility: 16500 to 17400 µg/mL
[9]; 7.5 mg/mL in 0.12% NaCl, RT
  Stability of nebulizer formulation: stable for at least one day
[9]; 40° C.
  Appearance of solution on storage: became cloudy after two days of storage
[9]; RT (24-26° C.)
  Appearance of solution on storage: slight precipitate is observed on the third day

## C[C@@](O)(CCO)CC(=O)O [MVA, mevalonic acid]
HT-29 SF cells [1]
  Prevention of DHEA-induced S phase depletion: partially prevented
HT-29 SF cells [2]
  Reversal of DHEA-induced growth inhibition: partially overcome

## C[C@]12CCC(=O)C=C1CC[C@@H]1[C@@H]2CC[C@@]2(C)[C@H]1CC[C@]2(C)O [Methyltestosterone, methyltestosterone]
adenosine; Methyltestosterone 40 mg/kg, mean±SEM
  Intracellular adenosine, Liver: 16.5 ± 0.9 nmols/mg protein
adenosine; Methyltestosterone 120 mg/kg, mean±SEM
  Intracellular adenosine, Liver: 5.1 ± 0.5 nmols/mg protein

## O=C(Nc1c(Cl)cncc1Cl)c1ccc(OC(F)F)c(OCC2CC2)c1 [Roflumilast]
asthma; higher dose
  Reduction of number of exacerbations compared to placebo: 48%
asthma; lower dose
  Reduction of number of exacerbations compared to placebo: 8%

## CC(C)=CCC/C(C)=C/CC/C(C)=C/CC/C=C(\C)CC/C=C(\C)CCC=C(C)C [SQ, squalene]
HT-29 SF cells [2]
  Reversal of DHEA-induced growth inhibition: no such effect
